Test [1] concerns the target Tubulin beta (Homo sapiens) (UniProt P68371+Q9H4B7+Q13509+P04350+Q3ZCM7+P07437+Q13885+Q9BVA1+Q9BUF5+A6NNZ2). Description: Binding affinity to beta-tubulin (unknown origin) by pull down assay. It counts as protein assay.
Test [2] addresses T1, Hexokinase-2 (Homo sapiens) (UniProt P52789).
T1 sequence (whole entry): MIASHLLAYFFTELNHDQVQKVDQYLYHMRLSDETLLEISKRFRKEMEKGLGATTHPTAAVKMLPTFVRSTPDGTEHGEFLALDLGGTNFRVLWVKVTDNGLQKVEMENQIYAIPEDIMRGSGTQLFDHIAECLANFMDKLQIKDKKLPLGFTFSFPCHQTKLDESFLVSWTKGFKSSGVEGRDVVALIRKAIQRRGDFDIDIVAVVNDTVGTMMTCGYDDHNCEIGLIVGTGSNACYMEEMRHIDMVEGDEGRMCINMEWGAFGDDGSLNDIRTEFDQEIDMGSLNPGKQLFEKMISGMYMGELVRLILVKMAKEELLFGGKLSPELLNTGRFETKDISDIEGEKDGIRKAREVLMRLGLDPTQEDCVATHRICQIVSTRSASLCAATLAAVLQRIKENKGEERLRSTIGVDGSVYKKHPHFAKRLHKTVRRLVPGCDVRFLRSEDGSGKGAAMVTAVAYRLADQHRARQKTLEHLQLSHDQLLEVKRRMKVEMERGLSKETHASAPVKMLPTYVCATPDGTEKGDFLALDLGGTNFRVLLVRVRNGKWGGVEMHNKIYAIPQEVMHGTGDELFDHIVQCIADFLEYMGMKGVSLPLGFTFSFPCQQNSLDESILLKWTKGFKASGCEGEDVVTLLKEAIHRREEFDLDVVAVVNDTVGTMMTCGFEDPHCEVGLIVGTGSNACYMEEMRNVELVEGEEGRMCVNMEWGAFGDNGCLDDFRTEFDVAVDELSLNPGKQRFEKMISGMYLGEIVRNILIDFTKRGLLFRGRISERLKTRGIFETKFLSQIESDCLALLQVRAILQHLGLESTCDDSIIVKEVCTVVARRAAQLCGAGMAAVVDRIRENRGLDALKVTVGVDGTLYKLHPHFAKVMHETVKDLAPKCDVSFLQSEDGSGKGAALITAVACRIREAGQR
Description: Binding affinity to human HK2 transfected in Escherichia coli BL21 (DE) by pull down assay.

The test system of another test is MDA-MB-231. Briefly: Antiproliferative activity against human MDA-MB-231 cells assessed as reduction in cell proliferation incubated for 48 hrs by CCK-8 assay. Particulars: MDA-MB-231, 48 h. Format: functional, cell-based. (Tetrazolium dyes change colour on reduction, which living cells bring about.)
The target in test [3] is T1, Hexokinase-2 (Homo sapiens). Description: Inhibition of human HK2 transfected in Escherichia coli BL21 (DE) incubated for 10 mins.
Test [4] addresses T2, Tubulin (Homo sapiens) (UniProt P68371+Q9H4B7+P0DPH7+P68366+Q13509+Q71U36+P04350+Q3ZCM7+P07437+P68363+Q9BQE3+Q6PEY2+Q13885+Q9BVA1+Q9BUF5). Description: Disruption of microtubule network in human MDA-MB-231 cells assessed as point-like fiber structure at 1 uM incubated for 24 hrs by DAPI staining based fluorescence microscopic analysis. Format: cell-based.
In test [5] the target is T2, Tubulin (Homo sapiens). Briefly: Disruption of microtubule network in human MDA-MB-231 cells assessed as disorganized microtubule network at 1 uM incubated for 24 hrs by DAPI staining based fluorescence microscopic analysis. Format: cell-based.
The target in test [6] is T2, Tubulin (Homo sapiens). Briefly: Disruption of microtubule network in human MDA-MB-231 cells assessed as reduced microtubule network at 1 uM incubated for 24 hrs by DAPI staining based fluorescence microscopic analysis. It counts as cell-based.
Test [7] has as its target T2, Tubulin (Homo sapiens). Description: Disruption of microtubule network in human MDA-MB-231 cells assessed as punctate fiber structure at 1 uM incubated for 24 hrs by DAPI staining based fluorescence microscopic analysis. It counts as cell-based.
In test [8] the target is T2, Tubulin (Homo sapiens). Description: Disruption of microtubule network in human MDA-MB-231 cells assessed as atrophy fiber structure at 1 uM incubated for 24 hrs by DAPI staining based fluorescence microscopic analysis. Format: cell-based.

Structures are written as SMILES. Active and inactive are the calls of the source. The calls are words filed in the database; no cut-off is given here.

Our source for the Activity, IC50 and inhibition values is ChEMBL document CHEMBL6096661, “Synthesis, biological evaluation and mechanism study of a novel indole-pyridine chalcone derivative as antiproliferative agent against tumor cells through dual targeting tubulin and HK2” (Eur J Med Chem, 2025).

In the case of `O=C1N[C@H]2[C@H](CS[C@H]2CCCCC(=O)N2CCN(c3ccc4c(c3)c(/C=C/C(=O)c3cccnc3)cn4S(=O)(=O)c3ccc([N+](=O)[O-])cc3)CC2)N1`, the outcome in test [1] and in test [2] was Active.
Turning to `COc1cc2c(c(OC)c1OC)-c1ccc(OC)c(=O)cc1[C@@H](NC(C)=O)CC2` [COLCHICINE], in the test with MDA-MB-231, the IC50 (as a rule, the point on the concentration scale where inhibition reaches its midpoint) was 2.2 µM. The inhibition result in test [3] was “inactive”.
In the case of `COc1ccc(CCc2cc(OC)c(OC)c(OC)c2)cc1O`, the outcome at Tubulin (Homo sapiens) [4], at Tubulin (Homo sapiens) [5], on Tubulin (Homo sapiens) [6], on Tubulin (Homo sapiens) [7] and at Tubulin (Homo sapiens) [8] was Active. Besides, in the test with MDA-MB-231, the IC50 amounted to 1.94 µM. In addition, the inhibition result in test [3] was “inactive”.
